Molecules are shown by their SMILES.

The target of the test is DNA (cytosine-5)-methyltransferase 1 (Homo sapiens, UniProt P26358). Kind of test: DNMT1 Inhibition Assay. How it is done: The DNMT1 assays were carried to determine the IC50 with transition state analogs. The reaction (100 μL) containing 50 mM Tris-HCl pH 8.0, 100 mM KCl, 50 ug/mL BSA, 2 mM DTT, 1 μM freshly prepared [Me-3H]-SAM, 1 μM 26 bp hemimethylated DNA substrate and varying concentrations of each inhibitor ([…]), incubated at 37° C. with 100 nM DNMT1. The reaction fractions (50 μL) were taken at 2 hours. The methylated DNA was purified by using Micro Bio-spin P-30 columns (Bio-Rad). Purified samples were mixed with 10 mL of scintillation liquid (PerkinElmer), and counted for radioactivity in a Tricarb 2910 TR scintillation counter (PerkinElmer). The values obtained in the absence of DNMT1 in the reaction were used as controls. The assay data were analyzed using GraphPad Prism for IC50 calculations.
DNA (cytosine-5)-methyltransferase 1, sequence (P26358 whole entry): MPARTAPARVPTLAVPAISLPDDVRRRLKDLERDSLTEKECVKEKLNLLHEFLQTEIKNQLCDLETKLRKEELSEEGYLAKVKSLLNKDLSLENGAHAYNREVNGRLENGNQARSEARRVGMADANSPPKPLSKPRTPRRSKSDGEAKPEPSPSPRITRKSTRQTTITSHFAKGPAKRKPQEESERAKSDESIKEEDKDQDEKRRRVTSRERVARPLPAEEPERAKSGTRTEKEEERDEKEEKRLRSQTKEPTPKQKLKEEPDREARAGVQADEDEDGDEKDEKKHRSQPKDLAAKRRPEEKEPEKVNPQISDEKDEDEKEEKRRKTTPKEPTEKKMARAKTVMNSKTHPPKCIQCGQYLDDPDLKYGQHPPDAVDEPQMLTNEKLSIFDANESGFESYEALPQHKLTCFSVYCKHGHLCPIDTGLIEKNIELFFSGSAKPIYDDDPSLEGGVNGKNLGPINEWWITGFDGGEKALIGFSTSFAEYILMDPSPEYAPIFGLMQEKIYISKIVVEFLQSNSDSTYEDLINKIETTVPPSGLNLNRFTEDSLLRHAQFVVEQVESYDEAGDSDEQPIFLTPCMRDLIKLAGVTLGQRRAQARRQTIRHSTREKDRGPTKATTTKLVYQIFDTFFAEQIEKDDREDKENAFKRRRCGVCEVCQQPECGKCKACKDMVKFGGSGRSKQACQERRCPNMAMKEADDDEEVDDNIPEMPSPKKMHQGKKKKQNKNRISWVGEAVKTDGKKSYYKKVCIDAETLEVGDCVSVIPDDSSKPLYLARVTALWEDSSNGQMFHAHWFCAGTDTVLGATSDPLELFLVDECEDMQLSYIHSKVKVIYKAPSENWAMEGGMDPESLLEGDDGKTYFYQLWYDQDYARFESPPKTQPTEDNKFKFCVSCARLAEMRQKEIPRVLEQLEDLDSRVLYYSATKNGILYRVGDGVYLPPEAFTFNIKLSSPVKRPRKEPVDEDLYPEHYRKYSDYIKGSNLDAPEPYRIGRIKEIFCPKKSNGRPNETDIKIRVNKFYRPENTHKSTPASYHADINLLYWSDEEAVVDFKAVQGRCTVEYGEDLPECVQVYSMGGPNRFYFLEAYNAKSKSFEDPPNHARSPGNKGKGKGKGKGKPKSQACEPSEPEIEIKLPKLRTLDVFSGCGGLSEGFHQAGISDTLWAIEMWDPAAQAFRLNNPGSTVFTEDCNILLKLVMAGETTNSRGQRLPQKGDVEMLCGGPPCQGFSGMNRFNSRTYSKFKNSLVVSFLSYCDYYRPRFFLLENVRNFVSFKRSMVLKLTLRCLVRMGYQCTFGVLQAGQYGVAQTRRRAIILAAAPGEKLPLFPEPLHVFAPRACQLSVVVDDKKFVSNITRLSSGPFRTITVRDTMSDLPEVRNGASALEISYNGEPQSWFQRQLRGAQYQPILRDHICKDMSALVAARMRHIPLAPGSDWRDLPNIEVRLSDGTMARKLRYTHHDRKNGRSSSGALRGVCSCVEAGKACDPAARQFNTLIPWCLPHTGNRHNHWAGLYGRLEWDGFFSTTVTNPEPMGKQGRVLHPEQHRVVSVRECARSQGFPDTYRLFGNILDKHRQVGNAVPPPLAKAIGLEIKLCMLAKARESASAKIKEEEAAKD

In turn, `Nc1nc(=O)n([C@H]2C[C@H](O)[C@@H](CO)O2)cc1CNC[C@H]1O[C@@H](n2cnc3c(N)ncnc32)[C@H](O)[C@@H]1O` [US11518779, Compound 10] returned an IC50 of 1100 nM. The compound `Nc1nc(=O)n([C@H]2C[C@H](O)[C@@H](CO)O2)cc1CSCCC[C@H]1O[C@@H](n2cnc3c(N)ncnc32)[C@H](O)[C@@H]1O` [US11518779, Compound 21] showed an IC50 of 3600 nM.

The term IC50 denotes the concentration that inhibits the measured activity by half. A low value points to greater potency in that assay.

The record behind these values is BindingDB's records for patent US11518779 (Victoria Link, 2022).
